US20190177279A1, “CARBOXYLIC ACID AROMATIC 1,2-CYCLOPROPYLAMIDES” (Bayer Pharma Aktiengesellschaft, priority 2017, published 2019)
Where two headings read alike, the source gives them in different places.

Molecular target: T1, human B1 receptor (Homo sapiens, UniProt P46663)
T1 construct: host or cells: CHO-K1
T1 sequence (P46663 1-353): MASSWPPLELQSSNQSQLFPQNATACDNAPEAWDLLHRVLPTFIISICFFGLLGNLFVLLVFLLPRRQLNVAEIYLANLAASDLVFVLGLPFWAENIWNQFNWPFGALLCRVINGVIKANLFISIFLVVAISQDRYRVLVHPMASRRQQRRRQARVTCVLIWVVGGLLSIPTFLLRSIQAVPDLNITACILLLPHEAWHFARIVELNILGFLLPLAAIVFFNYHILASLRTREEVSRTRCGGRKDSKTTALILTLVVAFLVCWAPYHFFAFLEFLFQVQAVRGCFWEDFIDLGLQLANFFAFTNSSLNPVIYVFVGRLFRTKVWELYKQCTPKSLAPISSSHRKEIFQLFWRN
Assay: Calcium flux assay (FLIPR) with recombinant CHO-K1 cells expressing human B1 receptor
Format: cell-based
Details: agonist Lys-(Des-Arg)-Bradykinin
Procedure: The potency to inhibit the Bradykinin B1 receptors was determined for the example compounds of this invention in a cell-based fluorescent calcium-mobilisation assay. The assay measures the ability of example compounds to inhibit Bradykinin B1 receptor agonist-induced increase of intracellular free Ca^2+ in the cell line expressing B1 receptor. Specifically, calcium indicator—loaded cells are pre-incubated in the absence or presence of different concentrations of example compounds followed by the stimulation with a selective B1 receptor agonist peptide. The change of the intracellular Ca^2+ concentration is monitored with a fluorescent plate reader FLIPR (Molecular Devices).
Calcium flux Assay (FLIPR) with recombinant cells for Bradykinin B1 receptor antagonist, either in the presence (hB1 IC50) or absence (hB1 free IC50) of 0.1% BSA in assay buffer
CHO-K1 cell line expressing human B1 receptor was purchased from Euroscreen (Gosselies, Belgium, with reference name hB1-D1). The cells were grown in Nutrient Mixture Ham's F12 (Sigma) containing 10% Foetal bovine serum (Sigma) and 400 μg/mL G418 (Sigma), 5 μg/mL puromycin (Sigma).
For the calcium flux assay, 80% confluent cells were detached from the culture vessels with Versene (Gibco), and seeded into 384-well plates (Cell binding Surface; Corning, N.Y.; #3683) at a density of 15,000 cells per well. Cells were seeded in a volume of 50 μL in medium without antibiotics and incubated overnight in a humidified atmosphere with 5% CO2 at 37° C. […] The calcium indicator loaded cells were incubated at 37° C. for 2 hrs. Extracellular dye was then removed and each well was filled with 45 μL of assay buffer. Cell plates were kept in dark until used. Example compounds were assayed at 8 concentrations in triplicate. Serial 10-fold dilutions in 100% DMSO were made at a 100-times higher concentration than the final concentration, and then diluted 1:10 in assay buffer. 5 μL of each diluted compound was added to the well of cell plates (yielding final concentration with 1% DMSO), and incubated for 30 min at 28° C. before the addition of B1 receptor agonist on the FLIPR instrument.
Agonist plates contained the agonist Lys-(Des-Arg)-Bradykinin (Bachem, Brackley) at 3.5×EC90 in assay buffer with 1% DMSO. The addition of agonist 20 μl per well to the assay plate was carried out on the FLIPR instrument while continuously monitoring Ca^2+-dependent fluorescence at 538 nm. A peptide antagonist Lys-(Des-Arg-Leu)-Bradykinin (Bachem, Brackley) at 20 µM was used to determine the full inhibition as control.
Peak fluorescence was used to determine the response to agonist obtained at each concentration of example compound by the following equation:
% Response=100*(RFU(example compound)−RFU(control)/(RFU(DMSO)−RFU(control)) • Control=full inhibition by the peptide antagonist Lys-(Des-Arg-Leu)-Bradykinin at 20 μM
The response values were plotted against the logarithm of the compound concentrations. The compounds were tested in triplicates per plate and mean values were plotted in Excel XLfit to determine IC50 values, percentage of maximal inhibition and the Hill slopes.

IC50 (absence of 0.1% BSA in assay buffer, read-out: hB1 free IC50): 22 nM
IC50 (presence of 0.1% BSA in assay buffer, read-out: hB1 IC50): 78 nM
Structure (SMILES): O=C(O)c1cc(NC(=O)C2CC2c2ccc(Cl)cc2)cc(F)c1-c1cnn(C2CCC2)c1 (racemic) [Example 2, 5-({[2-(4-chlorophenyl)cyclopropyl]carbonyl}amino)-2-(1-cyclobutyl-1H-pyrazol-4-yl)-3-fluorobenzoic acid]
